Like-named read-outs stand apart in the source and are kept apart here. One block for each compound: values may come before it.
Tests used:
[1] = system: Myzus persicae (Green peach aphid); assay: Myzus persicae sunflower leaf disc spray test; format: in vivo; details: foliar, 144 h, read-out: control of Myzus persicae
Experimental: (§1) This Example illustrates the pesticidal/insecticidal properties of compounds of formula (I). The compounds numbers are those of the characterising data tables. Test against were performed as follows:
Heliothis virescens (Tobacco budworm): Eggs (0-24 h old) were placed in 24-well microtiter plate on artificial diet and treated with test solutions at an application rate of 200 ppm by pipetting. After an incubation period of 4 days, samples were checked for egg mortality, larval mortality, and growth regulation. The following compounds gave at least 80% control of Heliothis virescens: 1.004, 1.005, 1.012, 1.016, 4.001, 31.016, 31.018. Myzus persicae (Green peach aphid): Sunflower leaf discs were placed on agar in a 24-well microtiter plate and sprayed with test solutions at an application rate of 200 ppm. After drying, the leaf discs were infested with an aphid population of mixed ages. After an incubation period of 6 DAT, samples were checked for mortality.

[2] = system: Myzus persicae (Green peach aphid); assay: Myzus persicae test, roots of infested pea seedlings placed in test solution; format: in vivo; details: 144 h, read-out: control of Myzus persicae
Experimental: as §1
Myzus persicae (Green peach aphid): Roots of pea seedlings, infested with an aphid population of mixed ages, were placed directly in the test solutions of 24 ppm. 6 days after introduction, samples were checked for mortality.

[3] = roots of pea seedlings in test solutions of 24 ppm, mixed ages, mortality after 6 days
[4] = sunflower leaf discs sprayed at 200 ppm, mixed ages, mortality at 6 DAT

melting point: 115 to 118 °C
Structure (SMILES): COc1ccc2c(c1)CCC2NC1=NCCO1 (stereo not drawn)

melting point: 109 to 113 °C
Structure (SMILES): COc1cc2c(cc1OC)C(NC1=NCCO1)CC2 (stereo not drawn)

melting point: > 120 °C (dec.)
Structure (SMILES): c1ccc(C2CC(NC3=NCCO3)c3ccccc32)cc1 (stereo not drawn)

Structure (SMILES): O=C(NCCCl)NC1CCc2ccccc21 (racemic) [Compound 31.017]
pest or weed control at 200 ppm [1]: ≥ 80% | pest or weed control at 24 ppm [2]: ≥ 80%

melting point: 139 to 141 °C
Structure (SMILES): OC1Cc2ccccc2C1NC1=NCCO1 (stereo not drawn) [1.013]

melting point: 140 to 142 °C
Structure (SMILES): OC1Cc2ccccc2C1NC1=NCCO1 (stereo not drawn) [1.014]

Structure (SMILES): CC1Cc2ccccc2C1NC1=NCCO1 (stereo not drawn) [Compound 1.001]
pest or weed control at 24 ppm [2, 3]: ≥ 80%

Structure (SMILES): CC1CC(NC2=NCCO2)c2ccccc21 (stereo not drawn) [Compound 1.002]
pest or weed control at 200 ppm [1, 4]: ≥ 80% | pest or weed control at 24 ppm [2, 3]: ≥ 80%

Structure (SMILES): Cc1cccc2c1CCC2NC1=NCCO1 (stereo not drawn) [Compound 1.004]
pest or weed control at 200 ppm [1, 4]: ≥ 80% | pest or weed control at 24 ppm [2, 3]: ≥ 80%

Structure (SMILES): Fc1ccc2c(c1)CCC2NC1=NCCO1 (stereo not drawn) [Compound 1.005]
pest or weed control at 200 ppm [1, 4]: ≥ 80%

Structure (SMILES): Brc1ccc2c(c1)CCC2NC1=NCCO1 (stereo not drawn) [Compound 1.006]
pest or weed control at 200 ppm [1, 4]: ≥ 80%

Structure (SMILES): Clc1ccc2c(c1)CCC2NC1=NCCO1 (stereo not drawn) [Compound 1.007]
pest or weed control at 200 ppm [1, 4]: ≥ 80%

Structure (SMILES): COc1ccc2c(c1)C(NC1=NCCO1)CC2 (stereo not drawn) [Compound 1.009]
pest or weed control at 200 ppm [1, 4]: ≥ 80%

Structure (SMILES): Cc1ccc2c(c1)CCC2NC1=NCCO1 (stereo not drawn) [Compound 1.010]
pest or weed control at 200 ppm [1, 4]: ≥ 80% | pest or weed control at 24 ppm [2, 3]: ≥ 80%

Structure (SMILES): Cc1ccc2c(c1)C(NC1=NCCO1)CC2 (stereo not drawn) [Compound 1.012, (4,5-Dihydro-oxazol-2-yl)-(6-methyl-indan-1-yl)-amine]
pest or weed control at 200 ppm [1, 4]: ≥ 80% | pest or weed control at 24 ppm [2, 3]: ≥ 80%

Structure (SMILES): CC1Cc2ccccc2C1NC1=NCCO1 (stereo not drawn) [Compound 1.015]
pest or weed control at 200 ppm [1, 4]: ≥ 80%

Structure (SMILES): Fc1cccc2c1CCC2NC1=NCCO1 (stereo not drawn) [Compound 1.016]
pest or weed control at 200 ppm [1, 4]: ≥ 80% | pest or weed control at 24 ppm [2, 3]: ≥ 80%

Structure (SMILES): c1ccc2c(c1)CCC2NC1=NCCO1 (stereo not drawn) [Compound 1.017]
pest or weed control at 200 ppm [1, 4]: ≥ 80% | pest or weed control at 24 ppm [2, 3]: ≥ 80%

Structure (SMILES): CC1Cc2ccccc2C1NC(=O)NCCCl (stereo not drawn) [Compound 31.001]
pest or weed control at 200 ppm [1]: ≥ 80% | pest or weed control at 24 ppm [2]: ≥ 80%

Structure (SMILES): CC1CC(NC(=O)NCCCl)c2ccccc21 (stereo not drawn) [Compound 31.002]
pest or weed control at 200 ppm [1]: ≥ 80% | pest or weed control at 24 ppm [2]: ≥ 80%

Structure (SMILES): O=C(NCCCl)NC1CCc2c(F)cccc21 (stereo not drawn) [Compound 31.016]
pest or weed control at 200 ppm [1]: ≥ 80% | pest or weed control at 24 ppm [2]: ≥ 80%

Structure (SMILES): O=C(NCCCl)NC1CCc2ccccc21 (stereo not drawn) [Compound 31.018]
pest or weed control at 200 ppm [1]: ≥ 80% | pest or weed control at 24 ppm [2]: ≥ 80%

— patent US20100280085A1, “CHEMICAL COMPOUNDS” (SYNGENTA CROP PROTECTION, INC., priority 2006, published 2010)
